The values below come from patent US8586588B2, “Aryl pyridazinone derivatives and their use as H3 receptor ligands” (Cephalon, Inc., priority 2006, dated 2013).

In series [1] the target is T1, human H3 receptor (Homo sapiens, UniProt Q9Y5N1).
T1 construct: expressed in transfected cells
Nature of the series: Human H3 radioligand binding ([3H]-N-alpha-methylhistamine, CHO cell membranes, SPA). The following applies: Table B. Summed up:
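CHO cell membranes expressing human H3 (10 μg protein/well) incubated 4 h at room temperature, in the dark, with ~1 nM [3H]-N-alpha-methylhistamine, compounds (0.01 nM-30 μM) and SPA beads in 50 mM Tris HCl pH 7.4, 5 mM MgCl2, 0.1% BSA. Non-specific binding defined with 10 μM clobenpropit.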

Series [2] addresses T2, rat histamine H3 receptor (Rattus norvegicus, UniProt Q9QYN8).
T2 construct: encoding the entire 445-amino-acid rat histamine H3 receptor; expressed in transfected cells
The series is described as follows: Rat H3 radioligand binding ([3H]-N-alpha-methylhistamine, CHO-A3 cell membranes, SPA). The conditions noted are these: Table B, binding constant as letter class; read-out: rat H3 Ki. Summed up: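 Membranes from CHO-A3 cells stably expressing rat H3 (10 μg protein) incubated 4 h at room temperature in 50 mM Tris-HCl pH 7.4, 5 mM MgCl2, 0.1% BSA with ~1 nM [3H]-N-alpha-methylhistamine and compound (0.01 nM-30 μM). Bound radioligand read by scintillation proximity; nonspecific binding with 10 μM clobenpropit.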

[3] abbreviates: binding constant as letter class.

SMILES strings stand for the structures. pKi: −log10 of the molar value. Some results are limits rather than exact numbers.

As a reminder, the pKi is −log10 of the Ki, conventionally taken in molar units. In general, melting point refers to the temperature, or range, at which the solid turns liquid.

T2 sequence (Q9QYN8 whole entry): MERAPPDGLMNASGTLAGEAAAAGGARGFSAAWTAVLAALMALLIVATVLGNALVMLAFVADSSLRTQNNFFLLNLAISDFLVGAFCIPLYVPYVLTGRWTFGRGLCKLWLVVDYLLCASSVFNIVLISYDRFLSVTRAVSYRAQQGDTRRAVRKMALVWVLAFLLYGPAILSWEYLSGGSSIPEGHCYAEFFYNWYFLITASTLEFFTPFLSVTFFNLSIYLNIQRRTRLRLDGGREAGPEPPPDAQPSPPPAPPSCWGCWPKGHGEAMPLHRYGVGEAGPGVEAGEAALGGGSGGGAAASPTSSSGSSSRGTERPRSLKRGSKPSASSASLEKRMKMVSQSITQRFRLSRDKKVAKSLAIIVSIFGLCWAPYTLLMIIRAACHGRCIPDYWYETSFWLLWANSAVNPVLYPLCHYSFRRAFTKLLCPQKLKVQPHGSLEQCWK
T1 sequence (Q9Y5N1 whole entry): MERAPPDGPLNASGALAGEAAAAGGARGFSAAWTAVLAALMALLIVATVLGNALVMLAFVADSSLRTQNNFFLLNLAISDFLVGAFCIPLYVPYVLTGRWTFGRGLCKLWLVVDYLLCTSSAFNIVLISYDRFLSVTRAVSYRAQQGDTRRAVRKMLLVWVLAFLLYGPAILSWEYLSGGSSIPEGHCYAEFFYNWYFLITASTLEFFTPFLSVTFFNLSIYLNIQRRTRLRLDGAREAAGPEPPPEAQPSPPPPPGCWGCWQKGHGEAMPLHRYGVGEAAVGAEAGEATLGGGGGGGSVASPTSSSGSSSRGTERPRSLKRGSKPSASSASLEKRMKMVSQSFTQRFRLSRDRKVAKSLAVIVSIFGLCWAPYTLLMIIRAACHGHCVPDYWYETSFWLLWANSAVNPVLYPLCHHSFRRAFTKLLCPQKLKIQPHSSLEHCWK

`C[C@@H]1CCCN1CCCOc1ccc(C2=NNC(=O)C(C)(C)C2)cc1` [Example 179, 4,4-Dimethyl-6-{4-[3-((R)-2-methyl-pyrrolidin-1-yl)-propoxy]-phenyl}-4,5-dihydro-2H-pyridazin-3-one] registered a melting point of 140 to 142 °C. Also, the pKi in series [1] (setting [3]) was 7.00 to 10.00. In addition, the pKi in series [2] is 7.00 to 10.00.

`C[C@@H]1CCCN1CCCOc1ccc(C2=NNC(=O)CC2)cc1F` [Example 180, 6-{3-Fluoro-4-[3-((R)-2-methyl-pyrrolidin-1-yl)-propoxy]-phenyl}-4,5-dihydro-2H-pyridazin-3-one] showed a melting point of 132 to 133 °C. In series [1] (setting [3]), this compound had a pKi of 7.00 to 10.00. Further, the pKi in series [2] is 7.00 to 10.00.

As to `O=C1CCC(c2ccc(OCCCN3CCCCC3)c(F)c2)=NN1` [Example 181, 6-[3-Fluoro-4-(3-piperidin-1-yl-propoxy)-phenyl]-4,5-dihydro-2H-pyridazin-3-one], the melting point was in the range of 164 to 166 °C. Further, the pKi in series [1] (setting [3]) is 7.00 to 10.00. The pKi in series [2] was 6.30 to 7.00.

As for `C[C@@H]1CCCN1CCCOc1ccc(C2=NNC(=O)CC2(C)C)cc1` [Example 182, 5,5-Dimethyl-6-{4-[3-((R)-2-methyl-pyrrolidin-1-yl)-propoxy]-phenyl}-4,5-dihydro-2H-pyridazin-3-one], the melting point lay in the range of 118 to 121 °C. This compound also had a pKi in series [1] (setting [3]) of 7.00 to 10.00. The pKi in series [2] was 7.00 to 10.00.

As for `C[C@@H]1CCCN1CCCOc1c(F)cc(-c2ccc(=O)[nH]n2)cc1F` [Example 184, 6-{3,5-Difluoro-4-[3-((R)-2-methyl-pyrrolidin-1-yl)-propoxy]-phenyl}-2H-pyridazin-3-one], the melting point lay within 169 to 171 °C. For the same compound, in series [1] (setting [3]), the pKi is 7.00 to 10.00. In addition, the pKi in series [2] was 7.00 to 10.00.

Compound `C[C@@H]1CCCN1CCCOc1c(Br)cc(-c2ccc(=O)[nH]n2)cc1Br` [Example 185, 6-{3,5-Dibromo-4-[3-((R)-2-methyl-pyrrolidin-1-yl)-propoxy]-phenyl}-2H-pyridazin-3-one] showed a melting point of 165 to 167 °C. The same compound showed a pKi in series [1] (setting [3]) of 7.00 to 10.00. The pKi in series [2] was 7.00 to 10.00.

`C[C@@H]1CCCN1CCCOc1c(F)cc(C2=NNC(=O)CC2)cc1F` [Example 186, 6-{3,5-Difluoro-4-[3-((R)-2-methyl-pyrrolidin-1-yl)-propoxy]-phenyl}-4,5-dihydro-2H-pyridazin-3-one] displayed a melting point of 102 to 104 °C. For the same compound, the pKi in series [1] (setting [3]) is 7.00 to 10.00. The pKi in series [2] is 7.00 to 10.00.

`O=C1CCC(c2cc(F)c(OC3CCN(C4CCC4)CC3)c(F)c2)=NN1` [Example 187, 6-[4-(1-Cyclobutyl-piperidin-4-yloxy)-3,5-difluoro-phenyl]-4,5-dihydro-2H-pyridazin-3-one] had a melting point of 162 to 164 °C. Also, in series [1] (setting [3]), the pKi is 7.00 to 10.00. The pKi in series [2] is 7.00 to 10.00.

For the compound `O=c1ccc(-c2cc(F)c(OC3CCN(C4CCC4)CC3)c(F)c2)n[nH]1` [Example 188, 6-[4-(1-Cyclobutyl-piperidin-4-yloxy)-3,5-difluoro-phenyl]-2H-pyridazin-3-one], the melting point lay in the range of 195 to 197 °C. Moreover, the pKi in series [1] (setting [3]) was 7.00 to 10.00. Also, the negative-log Ki (pKi) in series [2] is 7.00 to 10.00.

`CCC1CC(=O)NN=C1c1ccc(OC2CCN(C3CCC3)CC2)cc1` (stereo not drawn) [Example 192] registered a melting point of 152 to 154 °C. The compound further had a pKi in series [1] (cell prints a number instead of a letter) of 8.40. Further, the pKi in series [2] is 7.00 to 10.00.

In turn, `C[C@@H]1CCCN1CCCOc1ccc(-n2nc(-c3ccccc3)ccc2=O)cc1` [Example 200, 2-{4-[3-((R)-2-Methyl-pyrrolidin-1-yl)-propoxy]-phenyl}-6-phenyl-2H-pyridazin-3-one] came in with a melting point of 86 to 89 °C. The same compound showed a pKi in series [1] (setting [3]) of 7.00 to 10.00. The pKi in series [2] is 7.00 to 10.00.

On to `C[C@@H]1CCCN1CCCOc1ccc(-n2ncc3ccccc3c2=O)cc1` [Example 202, 2-{4-[3-((R)-2-Methyl-pyrrolidin-1-yl)-propoxy]-phenyl}-2H-phthalazin-1-one], for which the melting point fell in the range of 70 to 73 °C. Besides, the pKi in series [1] (setting [3]) is 7.00 to 10.00. Further, in series [2], the pKi is 7.00 to 10.00.

`C[C@@H]1CCCN1CCCOc1ccc(-n2nc(-c3cccnc3)ccc2=O)cc1` [Example 204, 2-{4-[3-((R)-2-Methyl-pyrrolidin-1-yl)-propoxy]-phenyl}-6-pyridin-3-yl-2H-pyridazin-3-one] showed a melting point of 87 to 90 °C. The compound further showed a pKi in series [1] (setting [3]) of 7.00 to 10.00. Besides, the pKi in series [2] is 7.00 to 10.00.

The compound `Cc1onc2c(=O)[nH]nc(-c3ccc(OCCCN4CCCCC4)cc3)c12` [Example 207, 3-Methyl-4-[4-(3-piperidin-1-yl-propoxy)-phenyl]-6H-isoxazolo[3,4-d]pyridazin-7-one] came in with a melting point of 178 to 179 °C. The pKi in series [1] (setting [3]) was 7.00 to 10.00. For the same compound, the pKi in series [2] is 7.00 to 10.00.

`Cc1onc2c(=O)[nH]nc(-c3ccc(OCCCN4CCC[C@H]4C)cc3)c12` [Example 208, 3-Methyl-4-{4-[3-((R)-2-methyl-pyrrolidin-1-yl)-propoxy]-phenyl}-6H-isoxazolo[3,4-d]pyridazin-7-one] displayed a melting point of 169 to 170 °C. The compound further had a negative logarithm of the Ki (pKi) in series [1] (setting [3]) of 7.00 to 10.00. In addition, the pKi in series [2] is 7.00 to 10.00.

Consider `Cc1cc(=O)[nH]nc1-c1ccc(OCCCN2CCC[C@H]2C)cc1` [Example 210, 5-Methyl-6-{4-[3-((R)-2-methyl-pyrrolidin-1-yl)-propoxy]-phenyl}-2H-pyridazin-3-one], for which the melting point was in the range of 253 to 255 °C. This compound showed a pKi in series [1] (setting [3]) of 7.00 to 10.00. Moreover, the pKi in series [2] is 7.00 to 10.00.

Take `CCc1cc(=O)[nH]nc1-c1ccc(OCCCN2CCC[C@H]2C)cc1` [Example 211, 5-Ethyl-6-{4-[3-((R)-2-methyl-pyrrolidin-1-yl)-propoxy]-phenyl}-2H-pyridazin-3-one]: the melting point was in the range of 272 to 275 °C. Further, in series [1] (setting [3]), the pKi was 7.00 to 10.00. Moreover, the pKi in series [2] was 7.00 to 10.00.

Take `C[C@@H]1CCCN1CCCOc1ccc(-c2ccc(=O)[nH]n2)c(F)c1` [Example 214, 6-{2-Fluoro-4-[3-((R)-2-methyl-pyrrolidin-1-yl)-propoxy]-phenyl}-2H-pyridazin-3-one]: the melting point fell in the range of 220 to 222 °C. For the same compound, in series [1] (setting [3]), the pKi is 7.00 to 10.00. Also, the pKi in series [2] was 7.00 to 10.00.

With `O=C1CC2CCc3cc(OC4CCN(C5CCC5)CC4)ccc3C2=NN1` (stereo not drawn) [Example 220, 8-(1-Cyclobutyl-piperidin-4-yloxy)-4,4a,5,6-tetrahydro-2H-benzo[h]cinnolin-3-one], the melting point was over 300 °C. For the same compound, the pKi in series [1] (setting [3]) is 7.00 to 10.00. The pKi in series [2] was 7.00 to 10.00.

Compound `O=c1ccc(-c2ccc(OC3CCN(C4CCC4)CC3)cc2F)n[nH]1` [Example 221, 6-[4-(1-Cyclobutyl-piperidin-4-yloxy)-2-fluoro-phenyl]-2H-pyridazin-3-one] gave a melting point of over 300 °C. In series [1] (setting [3]), the pKi was 7.00 to 10.00. Also, the pKi in series [2] is 7.00 to 10.00.

Regarding `Cc1cc(=O)[nH]nc1-c1ccc(OC2CCN(C3CCC3)CC2)cc1` [Example 222, 6-[4-(1-Cyclobutyl-piperidin-4-yloxy)-phenyl]-5-methyl-2H-pyridazin-3-one], the melting point is over 300 °C. Besides, the pKi in series [1] (setting [3]) was 7.00 to 10.00. Moreover, the pKi in series [2] is 7.00 to 10.00.

On to `COCn1ncc(-c2ccc(OCCCN3CCC[C@H]3C)cc2)cc1=O` [Example 224, 2-Methoxymethyl-5-{4-[3-((R)-2-methyl-pyrrolidin-1-yl)-propoxy]-phenyl}-2H-pyridazin-3-one], for which the melting point lay within 183 to 185 °C. In addition, the pKi in series [1] (setting [3]) is 7.00 to 10.00. The pKi in series [2] was 7.00 to 10.00.

Regarding `C[C@H](COc1ccc(-c2cn[nH]c(=O)c2)cc1)CN1CCCCC1` [Example 227, 5-[4-((S)-2-Methyl-3-piperidin-1-yl-propoxy)-phenyl]-2H-pyridazin-3-one], the melting point was in the range of 145 to 148 °C. Further, the negative-log Ki (pKi) in series [1] (setting [3]) is 7.00 to 10.00. The pKi in series [2] was 7.00 to 10.00.

Regarding `C[C@@H](COc1ccc(-c2cn[nH]c(=O)c2)cc1)CN1CCCCC1` [Example 228, 5-[4-((R)-2-Methyl-3-piperidin-1-yl-propoxy)-phenyl]-2H-pyridazin-3-one], the melting point was 160 to 163 °C. Besides, the pKi in series [1] (setting [3]) was 7.00 to 10.00. In addition, the pKi in series [2] was 6.30 to 7.00.

For `C[C@@H]1CCCN1CCCOc1c(Br)cc(-c2cn[nH]c(=O)c2)cc1Br` [Example 229], the melting point lay within 175 to 180 °C. The compound further had a pKi in series [1] (setting [3]) of 7.00 to 10.00. Besides, the pKi in series [2] was 6.00 to 6.30.

Regarding `Cc1cc(OCCCN2CCCCC2)ccc1-c1cn[nH]c(=O)c1` [Example 233, 5-[2-Methyl-4-(3-piperidin-1-yl-propoxy)-phenyl]-2H-pyridazin-3-one], the melting point fell in the range of 112 to 113 °C. Further, the pKi in series [1] (setting [3]) is 7.00 to 10.00. In series [2], the pKi was 6.30 to 7.00.

In the case of `O=c1ccc(-c2ccc(OCCCN3CCCC3)cc2)n[nH]1` [Example 240, 6-[4-(3-Pyrrolidin-1-yl-propoxy)-phenyl]-2H-pyridazin-3-one], the melting point is 154 to 157 °C. The pKi in series [1] (setting [3]) is 7.00 to 10.00. In addition, the pKi in series [2] is 7.00 to 10.00.

Consider `CN(CCCOc1ccc(-c2ccc(=O)[nH]n2)cc1)C1CCC1` [Example 241, 6-{4-[3-(Cyclobutyl-methyl-amino)-propoxy]-phenyl}-2H-pyridazin-3-one], for which the melting point was under 50 °C. In series [1] (setting [3]), this compound had a pKi of 6.30 to 7.00. In series [2], the pKi is 6.30 to 7.00.
